Values after ≈ are worked out from the molar mass of the structure shown.

In assay [1] the test system is P. aeruginosa DR4877/07. Type of assay: cell-based. Conditions: for FICI of B2088-antibiotic combination: lowest FICI reported, two independent duplicates; for Fold decrease in the MIC of antibiotics at sub-lethal/sub-inhibitory concentrations of B2088: multidrug resistant P. aeruginosa 4877. A digest of the protocol:
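Checkerboard combinations of peptide and antibiotic, each 2-fold diluted up to 1× MIC in MHB, were tested against ~10^6 CFU/ml final inoculum. Plates were incubated 24 h at 37 °C, with growth read at OD600. FICI was the sum of the combination-to-alone MIC ratios for each agent, and the lowest FICI from duplicate experiments was reported.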

The test system of assay [2] is E. coli D21 and LPS outer core polysaccharide truncated mutant strains. As to the kind of experiment: MIC ratio against LPS-truncated E. coli mutants. The class given is cell-based. Conditions: oligosaccharide-truncated mutants vs wild type D21; increase seen against D21e9 lacking outer core polysaccharides. The source says:
LPS is a complex glycosylated lipid molecule comprising of a hydrophobic lipid A and core oligosaccharides. The core oligosaccharides are structurally divided into an inner core (lipid A proximal) region and an outer core O-antigen region (Fig. 4a). To ascertain if the alterations in OM polysaccharides modify the barrier penetration and antimicrobial properties of the peptides, we determined the MIC of the peptides against 4 cell-wall defective mutants of E. coli (Fig. 4a). We report the MIC ratio (i.e., MICmut/MICwt) which is the ratio of MIC of peptides/antibiotics against oligosaccharides truncated mutant strains over MIC of wild type (D21) strains. For antibiotics that access intracellular targets through porin pathways or peptides that bind to the lipid A part of the LPS, the MIC ratio is independent of LPS truncation (Fig. 4b). However, antibiotics or peptides which interact with outer or inner core polysaccharides of the LPS are expected to show changes in the MIC ratio.
All the peptide congeners were purchased from M/s. Mimotopes Pty Ltd, Australia. The peptides were used as such and the homogeneity of peptides were confirmed by HPLC. Unless otherwise stated all the chemicals and the antibiotics tested were purchased from Sigma Aldrich (Singapore) Pte Ltd. The florescent probe, BODIPY TR cadaverine (BC) was purchased from Molecular Probes/ Invitrogen (CA, USA). E. coli LPS outer core polysaccharide truncated mutant strains were obtained from CGSG, The Coli Genetic Stock Centre, Yale University, […], USA. Relevant genotype of the strains are, D21 (rfa+); D21e19 (rfa-11) is a deficient mutant in carbohydrates close to the O-antigen part; D21e7 (rfa-1) is deficient in galactose as well as O-antigen; D21f1 (rfa-1, rfa21) lacks phosphate groups in the LPS has glucose and heptose intact; D21f2 (rfa-1, rfa-31) is deficient in heptose of the inner core[57][58].
(§1) MIC of each peptide was determined using the microdilution method in a 96 well microtitre plates (SPL Life Sciences Co., Ltd, Korea). Two-fold serial dilutions of each peptide in Mueller-Hinton Broth (MHB) was prepared from a 1 mg/ml stock solution of the peptide in the same broth, to obtain a final concentration in the range of 0.0976–50 μg/ml in each well. Bacterial suspensions (P. aeruginosa ATCC 27853, P. aeruginosa 4877, P. aeruginosa 23155, K. pneumoniae ATCC 10031 and K. pneumoniae 4299) were prepared by suspending the overnight cultured bacteria in saline and adjusting the inoculum to ~10^8 colony forming units (CFU) per ml. A further 150-fold dilution was then prepared in MHB to achieve a final cell density of 10^5–10^6 CFU/ml. In each well, 100 μl of inoculum was mixed with the equal volume of peptides at their 2× concentration. Positive and negative controls contained 200 μl of inoculum (without any peptide) and broth alone (no peptide/inoculum) respectively. Another negative control in which MHB containing 200 μl of peptide alone in its highest concentration tested (50 μg/ml) was also included to ensure that the optical density measured in the test wells was not due to turbidity of the peptides in solution. The 96 well polystyrene plates were then incubated at 37 °C for 24 h and the optical density at 600 nm (OD600) was measured every 30 min continuously using a TECAN microplate reader (TECAN Infinite 200, Austria). All the experiments were performed in two independent duplicates and the MIC was determined as the lowest peptide concentration in which no visible growth was observed.

In assay [3] the test system is P. aeruginosa DR4877/07. As to the kind of experiment: microbe, parasite or virus in culture. Conditions: Pseudomonas aeruginosa, DR4877/07, 24 h, read-out: MIC of antibiotics. On the procedure:
as §1, with “Austria).” for “Austria). All the experiments were performed in two independent duplicates and the MIC was determined as the lowest peptide concentration in which no visible growth was observed.”

Assay [4] deals with K. pneumoniae 31158. As to the kind of experiment: microbe, parasite or virus in culture. The class given is cell-based. Conditions: Klebsiella pneumoniae, 31158; individual peptide/antibiotics; read-out: MIC against K. pneumoniae 31158.
Assay [5] has as its system K. pneumoniae 07955. The assay can be described thus: microbe, parasite or virus in culture. Type of assay: cell-based. Conditions: Klebsiella pneumoniae, 07955; individual peptide/antibiotics; read-out: MIC against K. pneumoniae 07955.
For assay [6], the system named is K. pneumonia 4299. As to the kind of experiment: microbe, parasite or virus in culture. Conditions: Klebsiella pneumoniae, 4299; individual peptide/antibiotics; read-out: MIC against K. pneumoniae 4299. Type of assay: cell-based, K. pneumoniae. In a few lines: (§2)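 Peptides two-fold diluted in Mueller-Hinton Broth (0.0976–50 μg/ml final) against 10^5–10^6 CFU/ml inoculum, 37 °C for 24 h with OD600 monitored every 30 min. MIC = lowest concentration with no visible growth; two independent duplicates.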

Assay [7] concerns K. pneumonia 31158. The assay can be described thus: Checkerboard assay. The class given is cell-based, K. pneumoniae. Conditions: for Fractional inhibitory concentration of B2088 used for FICI calculation: first number in parenthesis, in combination with the labelled antibiotic; for Fractional inhibitory concentration of antibiotic used for FICI calculation: second number in parenthesis, in combination with B2088. The procedure: (§3) The synergism between peptides with conventional antibiotics was evaluated using checkerboard assays. For a comparison polymyxin B (PMB) was also tested against each antibiotic. From their stock solutions, two-fold dilutions of each antibiotic and peptide to 1× MIC were prepared in MHB. 50 μl of each peptide concentration was added into the wells of a 96-well polystyrene plates (SPL Life Sciences Co. Ltd, Korea) in a horizontal orientation and the same volume of each antibiotic concentration were then added in a vertical orientation. Bacterial suspensions were prepared in MHB to yield final cell density of ~10^6 CFU/ml and 100 μl of bacterial suspension was mixed with each peptide-antibiotic combinations. This procedure was repeated for wells containing 200 μl of peptide alone and 200 μl of antibiotic alone in various concentrations. The positive and negative controls contained 200 μl of inoculum and MHB alone respectively. The plates were incubated at 37 °C for 24 hours and the optical density at 600 nm (OD600) was monitored as before. Fractional inhibitory concentration index (FICI) for all antibiotic- peptide combinations was calculated through the summation of (MIC of peptide in the combination/ MIC of peptide alone) and (MIC of antibiotics in combination/MIC of antibiotic alone). The experiments were performed in two independent duplicates and the combinations that gave the lowest FICI values was reported.

Assay [8] deals with K. pneumonia 4299. As to the kind of experiment: Checkerboard assay. The class given is cell-based, K. pneumoniae. Conditions: for Fractional inhibitory concentration of B2088 used for FICI calculation: first number in parenthesis, in combination with the labelled antibiotic; for Fractional inhibitory concentration of antibiotic used for FICI calculation: second number in parenthesis, in combination with B2088. On the procedure:
as §3

Assay [9] deals with K. pneumonia 07955. The assay can be described thus: Checkerboard assay. The class given is cell-based, K. pneumoniae. Conditions: for Fractional inhibitory concentration of B2088 used for FICI calculation: first number in parenthesis, in combination with the labelled antibiotic; for Fractional inhibitory concentration of antibiotic used for FICI calculation: second number in parenthesis, in combination with B2088. On the procedure: as §3

Assay [10] concerns P. aeruginosa ATCC 9027. The assay can be described thus: MIC, microdilution. The class given is cell-based. For orientation: Broth dilution looks for growth in wells or tubes with falling amounts of substance.
The test system of assay [11] is P. aeruginosa ATCC 9027. The assay can be described thus: Checkerboard assay. Type of assay: cell-based. The procedure:
as §3

In assay [12] the test system is P. aeruginosa ATCC 27853. As to the kind of experiment: microbe, parasite or virus in culture. Type of assay: cell-based. Conditions: Pseudomonas aeruginosa, ATCC27853; antibiotic alone; read-out: MIC of gentamicin against this strain. In a few lines:
as §2

Where [13] appears, read: MIC of B2088 6.25 μg/ml, MHB, ~10^6 CFU/ml, 37 °C, 24 h.

Turning to `CC1(C)S[C@@H]2[C@H](NC(=O)C(C(=O)O)c3ccccc3)C(=O)N2[C@H]1C(=O)O` (stereo partly drawn) [Carbenicillin, reference compound], in assay [1] (setting [13]), the “MIC of antibiotics in the presence of ¼× sub-MIC of B2088” value (shortened to “MIC … of ¼× sub-MIC of B2088”) was found to be 800 µg/mL and the “MIC of antibiotics in the presence of ½× sub-MIC of B2088” value (“MIC … of ½× sub-MIC of B2088” below) was found to be 200 µg/mL. Besides, the “FICI of B2088-antibiotic combination” value in assay [1] was 0.63. Moreover, the “MIC ratio (MICmut/MICwt)” value in [2] is on record as “did not show any change”. The MIC in assay [3] amounted to 1600 µg/mL.
Turning to `O=C(N[C@H](CO)[C@H](O)c1ccc([N+](=O)[O-])cc1)C(Cl)Cl` [Chloramphenicol], in assay [1], the “FICI of polymyxin B-antibiotic combination” value turned out to be 0.63, the “FICI of B2088-antibiotic combination” value is 0.5 and the “Fold decrease in the MIC of antibiotics at sub-lethal/sub-inhibitory concentrations of B2088” value amounted to 4 fold. Besides, in assay [1] (setting [13]), the “MIC … of ¼× sub-MIC of B2088” value was found to be 50 µg/mL, the “MIC … of ½× sub-MIC of B2088” value turned out to be 25 µg/mL and the “MIC of antibiotics in the presence of ⅛× sub-MIC of B2088” value worked out at 100 µg/mL. Moreover, the MIC in [4] was found to be 3.12 µg/mL (≈ 9.67 µM). In [2], the “MIC ratio (MICmut/MICwt)” value was “marked increase”. In addition, the MIC in assay [5] turned out to be 50 µg/mL (≈ 155 µM). Also, the MIC in assay [6] came to 12.5 µg/mL (≈ 38.7 µM). Further, the MIC in assay [3] stood at 200 µg/mL. In [7], the “Fractional Inhibitory Concentration Index of B2088 with the antibiotic” value turned out to be 0.63, the “Fractional inhibitory concentration of B2088 used for FICI calculation” value is recorded as 0.5 and the “Fractional inhibitory concentration of antibiotic used for FICI calculation” value is given as 0.13. Also, in assay [8], the “Fractional Inhibitory Concentration Index of B2088 with the antibiotic” value is given as 0.38, the “Fractional inhibitory concentration of B2088 used for FICI calculation” value is on record as 0.13 and the “Fractional inhibitory concentration of antibiotic used for FICI calculation” value is 0.25. For the same compound, in [9], the “Fractional Inhibitory Concentration Index of B2088 with the antibiotic” value was 0.38, the “Fractional inhibitory concentration of B2088 used for FICI calculation” value is reported as 0.13 and the “Fractional inhibitory concentration of antibiotic used for FICI calculation” value is given as 0.25.
`CNC(C)C1CCC(N)C(OC2C(N)CC(N)C(OC3OCC(C)(O)C(NC)C3O)C2O)O1` (stereo not drawn) [Gentamicin]: the “Fold decrease in the MIC of antibiotics at sub-lethal/sub-inhibitory concentrations of B2088” value in assay [1] is reported as 4 fold. The MIC is 0.05 µg/mL (≈ 0.105 µM) in assay [4], 100 µg/mL (≈ 209 µM) in assay [5], 0.39 µg/mL (≈ 0.817 µM) in [6] and 0.04 µg/mL in assay [12]. Moreover, the “MIC ratio (MICmut/MICwt)” value in assay [2] is reported as “marked increase”. Moreover, in [10] (Gentamycin alone, ATCC 9027), the MIC of antibiotics (Table S1) was found to be 0.39 µg/mL. Besides, the MIC of antibiotics in assay [10] (gentamicin alone, ATCC 9027 used because DR4877/07 too resistant) is 0.39 µg/mL. In addition, the “FICI of polymyxin B-antibiotic combination” value in assay [11] (Gentamycin) was 1.0. Also, in assay [11] (Gentamycin), the MIC of antibiotics in the presence of ½ × sub-MIC of Polymyxin B amounted to 0.195 µg/mL. For the same compound, the “MIC … of ¼× sub-MIC of B2088” value in assay [11] (gentamicin) turned out to be 0.098 µg/mL. The “MIC … of ½× sub-MIC of B2088” value in assay [11] (gentamicin) came out at 0.024 µg/mL. Also, in [11] (gentamicin), the “MIC of antibiotics in the presence of ⅛× sub-MIC of B2088” value came out at 0.195 µg/mL. For the same compound, in assay [11] (gentamicin, lowest FICI reported), the “FICI of B2088-antibiotic combination” value came to 0.5. Moreover, the “Fractional Inhibitory Concentration Index of B2088 with the antibiotic” value is listed as 0.31 in assay [7], 0.37 in [8] and 0.75 in assay [9]. The “Fractional inhibitory concentration of B2088 used for FICI calculation” value in [7] is recorded as 0.25; in [8], 0.125; in assay [9] it was 0.25. In addition, the “Fractional inhibitory concentration of antibiotic used for FICI calculation” value in assay [7] is on record as 0.06; in assay [8], 0.25; in assay [9] it was 0.5.

Values taken from paper PMC4865820, “Branched Peptide, B2088, Disrupts the Supramolecular Organization of Lipopolysaccharides and Sensitizes the Gram-negative Bacteria” (Scientific Reports, 2016).
